# Like-named read-outs stand apart in the source and are kept apart here. Positions of bridges follow the written chain, without caps; N, C: chain ends. Residues, ends and D or L forms follow the SMILES beside them.
# How the values were obtained:
# rKV1.1 = biological target: T1, rKV1.1 (Rattus norvegicus, UniProt P10499); test: Two-electrode voltage-clamp on Xenopus laevis oocytes expressing rKV1.1; type: cell-based
# T1 construct: expressed in transfected cells; host or cells: Xenopus laevis oocytes injected with cRNA
# Protocol: (§1) The pharmacological effect of AbeTx1 was analyzed by heterologous expression of 12 voltage-gated potassium channels isoforms (rKV1.1, Genbank NM173095; rKV1.2, Genbank NM012970; hKV1.3, Genbank L23499; rKV1.4,Genbank NM012971; rKV1.5, Genbank NM012972; rKV1.6, Genbank NM575671; Shaker IR from Drosophila melanogaster, Genbank CG12348; rKV2.1, Genbank NM013186; hKV3.1, Genbank NM004976; rKV4.2, Genbank NM031730; rKV4.3, Genbank NM031739 and hERG, Genbank NM000238), and three voltage-gated sodium channel subtypes (rNaV1.2, Genbank NM012647; rNaV1.4, Genbank M26643 and BgNaV1.1, from Blattella germanica) (r, rat; h, human) in oocytes from Xenopus laevis. The linearized plasmids were transcribed using a T7 or SP6 mMESSAGE-mMACHINE transcription kit (Life Technologies, Austin, TX, USA). Oocytes were injected with 20–50 nL of cRNA at a concentration of 1 ng·nL^−1 using a microinjector (Drummond Scientific, Broomall, PA, USA). The oocytes were stored for 1–3 days at 16 °C until sufficient expression of voltage-gated ion channels was achieved. Oocytes were maintained in an ND96 solution (in mM: 96 NaCl, 2 KCl, 1.8 CaCl2, 2 MgCl2 and 5 HEPES; pH 7.4), supplemented with 50 µg·mL^−1 gentamicin sulfate.
# (§2) Two-electrode voltage-clamp recordings were performed at room temperature (18–22 °C) using a Geneclamp 500 amplifier (Molecular Devices, Sunnyvale, CA, USA) controlled by a pClamp data acquisition system (Axon Instruments, Union City, CA, USA). ND96 was used as bath solution. Whole-cell currents from oocytes were recorded 1–3 days after injection. Voltage and current electrodes were filled with KCl (3 M). The resistance of both electrodes was kept between 0.8–1.0 MΩ. The elicited currents were filtered at 0.5 or 2 kHz using a four-pole low-pass Bessel filter. Leak subtraction was performed using a -P/4 protocol. KV1.1-KV1.6 and Shaker IR currents were evoked by 500 ms depolarization to 0 mV, followed by a 500 ms pulse to −50 mV, from a holding potential of −90 mV. KV2.1, KV3.1, KV4.2, and KV4.3 currents were elicited by 500 ms pulses to + 20 mV from a holding potential of −90 mV. Current traces of hERG channels were elicited by applying a +40 mV pulse for 2.5 s, followed by a step to −120 mV for 2.5 s. Sodium current traces were evoked by 100 ms depolarization steps from a holding potential of −90 mV to 0 mV. Concentration-response curves were constructed by adding different AbeTx1 or analogs concentrations directly to the bath solution. The percentage of the KV blockade was plotted against the logarithm of the applied concentrations and fitted with the Hill Equation (1):y = 100/[1 + (IC50/[toxin]) × h](1) where y is the amplitude of the toxin-induced effect, IC50 is the toxin concentration at half-maximal efficacy, [toxin] is the toxin concentration, and h is the Hill coefficient. To investigate the effects on the voltage dependence of activation, current traces were evoked by 10 mV depolarization steps from a holding potential of −90 mV. Data were normalized to the maximal K^+ current amplitude, plotted against prepulse potential, and fitted using the Boltzmann Equation (2):IK/Imax = [1 + (exp(Vg − V)/k] − 1(2) where Imax represents maximal potassium current (IK), Vg is the voltage corresponding to half-maximal current, and k is the slope factor. Each experimental data represents mean ± standard error of at least three oocytes (n ≥ 3) from different frogs. Effect of the toxin on current-voltage experiments was statistically examined by comparing the control condition and the presence of toxin using the Student’s paired t-test. P-values < 0.05 are considered to be statistically significant. Data were analyzed using Clampfit 10.4 (Molecular Devices, Sunnyvale, CA, USA) and Origin v8.1 software (Origin Lab, Northampton, MA, USA), under the institutional license of the University of São Paulo.
# rKV1.6 = biological target: T2, rKV1.6 (Rattus norvegicus, UniProt P17659); test: Two-electrode voltage-clamp on Xenopus laevis oocytes expressing rKV1.6; type: cell-based
# T2 construct: expressed in transfected cells; host or cells: Xenopus laevis oocytes injected with cRNA
# Protocol: as §1, §2
# T2 sequence (P17659 whole entry): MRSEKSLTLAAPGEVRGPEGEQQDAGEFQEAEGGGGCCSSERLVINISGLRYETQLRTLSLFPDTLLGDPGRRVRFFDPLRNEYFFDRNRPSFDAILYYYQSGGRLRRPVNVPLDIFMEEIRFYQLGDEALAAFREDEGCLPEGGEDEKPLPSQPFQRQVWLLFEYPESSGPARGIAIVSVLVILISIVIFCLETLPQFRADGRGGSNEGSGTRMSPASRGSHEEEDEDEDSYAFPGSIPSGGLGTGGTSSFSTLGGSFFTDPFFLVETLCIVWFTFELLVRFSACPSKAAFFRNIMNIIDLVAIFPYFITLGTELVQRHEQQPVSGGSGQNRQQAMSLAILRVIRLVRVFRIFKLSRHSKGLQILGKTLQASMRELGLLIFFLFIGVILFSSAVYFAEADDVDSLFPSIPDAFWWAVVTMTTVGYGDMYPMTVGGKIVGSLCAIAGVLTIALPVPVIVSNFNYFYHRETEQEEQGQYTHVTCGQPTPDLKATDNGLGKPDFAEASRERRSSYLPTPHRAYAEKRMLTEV
# T1 sequence (P10499 whole entry): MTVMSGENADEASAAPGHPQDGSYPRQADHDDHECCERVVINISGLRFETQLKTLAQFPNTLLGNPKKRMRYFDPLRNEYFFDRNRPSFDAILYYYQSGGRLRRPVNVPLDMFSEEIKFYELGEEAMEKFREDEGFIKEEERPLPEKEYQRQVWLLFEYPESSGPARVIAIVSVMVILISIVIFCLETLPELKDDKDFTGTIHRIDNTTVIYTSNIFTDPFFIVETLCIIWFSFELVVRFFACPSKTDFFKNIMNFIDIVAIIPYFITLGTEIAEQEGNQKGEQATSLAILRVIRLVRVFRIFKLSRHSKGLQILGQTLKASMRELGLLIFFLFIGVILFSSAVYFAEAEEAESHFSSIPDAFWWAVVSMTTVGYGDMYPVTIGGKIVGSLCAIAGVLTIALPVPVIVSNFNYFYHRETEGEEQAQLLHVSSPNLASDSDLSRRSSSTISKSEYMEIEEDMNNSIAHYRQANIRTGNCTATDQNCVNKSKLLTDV
SMILES,"IC50 (rKV1.1; concentration-response curve, percentage blocked current fitted with Hill equation, TEVC oocytes, 0 mV from −90 mV, mean ± SE, n ≥ 3, SEM, read-out: KV1.1 IC50) [µM]","IC50 (rKV1.6; concentration-response curve, percentage blocked current fitted with Hill equation, TEVC oocytes, 0 mV from −90 mV, mean ± SE, n ≥ 3, SEM, read-out: KV1.6 IC50) [µM]",KV1.1 current reduced to (rKV1.1; 200 μM TEA alone in bath solution) [%],"IC50 (rKV1.1; external TEA in bath solution, concentration stated as IC50, read-out: TEA IC50 on KV1.1) [µM]",KV1.6 K+ currents reduced to (rKV1.6; 920 μM TEA alone in bath solution) [%],"IC50 (rKV1.6; external TEA in bath solution, concentration stated as IC50, read-out: TEA IC50 on KV1.6) [µM]"
"C[C@@H]1NC(=O)CNC(=O)[C@H](CCCCN)NC(=O)[C@H](CO)NC(=O)[C@@H]2CSSC[C@H](NC1=O)C(=O)N[C@@H](CCCNC(=N)N)C(=O)N1CCC[C@H]1C(=O)N[C@@H](CCCCN)C(=O)N1CCC[C@H]1C(=O)N[C@@H](CC(N)=O)C(=O)N[C@H](C(=O)NCC(=O)O)CSSC[C@H](NC(=O)[C@@H](N)CCCNC(=N)N)C(=O)N[C@@H](CCCCN)C(=O)N[C@@H]([C@@H](C)O)C(=O)N2 [Arg9Ala] (H-RCKTCSKGACRPKPNCG-OH; disulfide 2-16, 5-10)",8.5,2.44,,,,
"CC[N+](CC)(CC)CC [TEA, tetraethylammonium, reference compound]",,,52.20 ± 1.74,200,51.50 ± 0.65,920

# Source: paper PMC6213216, “AbeTx1 Is a Novel Sea Anemone Toxin with a Dual Mechanism of Action on Shaker-Type K^+ Channels Activation” (Marine Drugs, 2018)
